According to patent publication US10716306B2, “N-alkylsulfonyl indoline compound, agricultural and horticultural insecticide comprising the compound, and method for using the insecticide” (Nihon Nohyaku Co., Ltd., priority 2016, dated 2020):

Assays:
[1] = test system: Laodelphax striatellus; test: Insecticidal test on Laodelphax striatellus; type: in vivo; conditions: 192 h, rice seedlings dipped 30 seconds, ten 3rd-instar larvae, 8 days after the inoculation, read-out: insecticidal efficacy (corrected mortality rate)
Text: Insecticidal Test on Laodelphax striatellus
The condensed heterocyclic compounds represented by the general formula (1) of the present invention or salts thereof were separately dispersed in water and diluted to 500 ppm. Rice plant seedlings (variety: Nihonbare) were dipped in the agrochemical dispersions for 30 seconds. After air-dried, each seedling was put into a separate glass test tube and inoculated with ten 3rd-instar larvae of Laodelphax striatellus, and then the glass test tubes were capped with cotton plugs. At 8 days after the inoculation, the numbers of surviving larvae and dead larvae were counted, the corrected mortality rate was calculated according to the formula shown below, and the insecticidal efficacy was evaluated according to the criteria shown below. Corrected mortality rate (%)=100×(Survival rate in a non-treatment plot−Survival rate in a treatment plot)/Survival rate in a non-treatment plot [Math. 2] Corrected Mortality Rate A: the corrected mortality rate is 100%. B: the corrected mortality rate is 90 to 99%. C: the corrected mortality rate is 80 to 89%. D: the corrected mortality rate is 50 to 79%.

[2] = test system: Plutella xylostella; test: Insecticidal test on Plutella xylostella; type: in vivo; conditions: 144 h, Chinese cabbage seedlings with laid eggs dipped about 30 seconds, 25° C., 6 days after the dip treatment, read-out: insecticidal efficacy (corrected mortality rate)
Text: Insecticidal Test on Plutella xylostella
Adults of Plutella xylostella were released onto Chinese cabbage seedlings and allowed to lay eggs thereon. At 2 days after the release of the adults, the Chinese cabbage seedlings with laid eggs were dipped for about 30 seconds in agrochemical dispersions diluted to 500 ppm, each of which contained a different kind of indoline compound represented by the general formula (1) of the present invention as an active ingredient. After air-dried, the seedlings were kept in a thermostatic chamber at 25° C. At 6 days after the dip treatment, the number of hatched larvae per plot was counted, the mortality rate was calculated according to the formula shown below, and the insecticidal efficacy was evaluated according to the criteria of Test Example 2. This test was conducted in triplicate using 10 adults of Plutella xylostella per plot. Corrected mortality rate (%)=100×(Number of hatched larvae in a non-treatment plot−Number of hatched larvae in a treatment plot)/Number of hatched larvae in a non-treatment plot [Math. 3]

SMILES	mortality at 500 ppm [1]	mortality at 500 ppm [2]
CCS(=O)(=O)N1c2ccccc2CC1c1nc2cc(C(F)(F)F)cnc2n1C (centres unmarked) [Compound 2-1, 2-(1-ethylsulfonyl-indolin-2-yl)-3-methyl-6-trifluoromethyl-3H-imidazo[4,5-b]pyridine]	100%	100%
CCS(=O)(=O)N1c2ccccc2CC1c1nc2cc(SC(F)(F)F)ccc2o1 (centres unmarked) [Compound 3-1, 2-(1-ethylsulfonyl-indolin-2-yl)-5-trifluoromethyl-thiobenzo[d]oxazole]	100%	100%
CCS(=O)(=O)N1c2ccc(I)cc2CC1c1nc2cc(SC(F)(F)F)ccc2o1 (centres unmarked) [Compound 3-5, 2-(1-ethylsulfonyl-5-iodoindolin-2-yl)-5-trifluoromethyl-thiobenzo[d]oxazole]	100%	100%
CCS(=O)(=O)N1c2ccc(C3CC3)cc2CC1c1nc2cc(SC(F)(F)F)ccc2o1 (centres unmarked) [Compound 3-19, 2-(1-ethylsulfonyl-5-cyclopropyl-indolin-2-yl)-5-trifluoromethyl-thiobenzo[d]oxazole]	100%	100%
